Source: the supplement of paper PMC8239392

Experiments:
[1] = system: TAZ-IND MCF10A-TAZ tumor cells; assay: cell viability relative to DMSO control; higher = less cytotoxic; extreme values may be limits of the assay; settings: 72 h
Procedure: (§1)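 TAZ-dependent (grown with 2 ug/ml dox) and TAZ-independent MCF10A-TAZ tumor-derived breast cancer stem-like cells were plated in 384-well plates and treated with serially diluted compounds (0.65-10 uM) for 72 h. Viability was read by resazurin assay and expressed as % of DMSO-treated control.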

[2] = system: TAZ-DEP MCF10A-TAZ tumor cells; assay: as above; settings: 72 h
Procedure: as §1

Row | Structure (SMILES) | cell viability ([1]; 0.65 µM) | cell viability ([1]; 1.25 µM) | cell viability ([1]; 2.5 µM) | cell viability ([1]; 5 µM) | cell viability ([1]; 10 µM) | cell viability ([2]; 0.65 µM) | cell viability ([2]; 1.25 µM) | cell viability ([2]; 2.5 µM) | cell viability ([2]; 5 µM) | cell viability ([2]; 10 µM)
1 | CNC(=O)c1cc(Oc2ccc(NC(=O)Nc3ccc(Cl)c(C(F)(F)F)c3)cc2)ccn1 [Sorafenib] | 100% | 99% | 100% | 98% | 93% | 100% | 98% | 92% | 84% | 72%
2 | N#CC(=C(/N)Sc1ccccc1N)/C(C#N)=C(\N)Sc1ccccc1N [U0126-EtOH] | 95% | 94% | 89% | 84% | 79% | 99% | 94% | 84% | 70% | 67%
3 | CNCc1ccc(-c2cc(-c3nc(-c4ccc(S(=O)(=O)C(C)C)cc4)cnc3N)on2)cc1 [VE-822] | 96% | 87% | 81% | 75% | 69% | 55% | 37% | 29% | 23% | 20%
4 | C=CC(=O)Nc1cccc(Oc2nc(Nc3ccc(N4CCN(C)CC4)cc3OC)ncc2Cl)c1 [WZ4002] | 96% | 97% | 96% | 75% | 68% | 90% | 72% | 67% | 33% | 23%
